Measured values taken from patent US20080063601A1, “Compositions and methods relating to polycystic kidney disease” (priority 2004, published 2008).
Where two headings read alike, the source gives them in different places.

Legend:
[1] = Dose finding / toxicity in pregnant C57B1/6 mice; format: in vivo
Method: Triptolide has been previously studied in rodent models of tumor regression (Tengchaisri, et al., 1998, Cancer Lett 133, 169-175; Yang, et al., 2003, Mol Cancer Ther 2, 65-72), but it had not yet been tested in a system utilizing pregnant females. To first establish a potential therapeutic versus lethal concentration of drug delivery, pregnant C57B1/6 mice were treated with incremental concentrations of triptolide between 0.01-0.15 mg/kg/day i.p. injections. Toxicity was assessed as determined by resorption of all embryos or the preponderance of a large percentage of stillborns. With reference to these criteria, triptolide toxicity was determined to be most prominent at concentrations of 0.1 mg/kg/day or greater. […] Another experimental parameter involved the timing of the start of triptolide injections, since polycystin-2 has been implicated in left-right axis formation in the developing embryo at approximately E7.75 (McGrath, et al., 2003, Cell 114, 61-73; Pennekamp, et al., 2002, Curr Biol 12, 938-943). Applicants therefore chose E10.5 as the start of triptolide injections, in order to allow for a normal polycystin-2 mediated patterning event and still leave sufficient time to act on cyst formation during kidney organogenesis.

[2] = tested on: polycystin-2; assay: Fluo-4 calcium imaging in murine kidney epithelial cells; format: cell-based
Method: (§1) Cells were plated on coverslips and loaded with Fluo-4 (Molecular Probes) diluted in DMSO/pluronic for 30 minutes prior to imaging. Cells were perfused with a calcium imaging buffer (HEPES, NaCl, KCl, MgSO4 and CaCl2) ±100 nM triptolide. All cell traces are indicative of individual cellular fluorescence and calcium release. Data is presented as change of fluorescence over baseline control (before triptolide addition).
(§2) Murine kidney epithelial cell lines with differing polycystin-1 or polycystin-2 expression were used to establish a cellular based mechanism for polycystin-2 mediated calcium release in response to triptolide. Because the biochemical purification analysis identified polycystin-2 as a putative triptolide binding protein, Applicant assessed whether the calcium release was dependent upon expression of polycystin-1. Epithelial cells derived from the proximal nephric tubules of Pkd1^−/− mice were first examined to determine if calcium release was observed when 100 nM of triptolide was perfused through the imaging chamber. […] To strengthen the evidence that polycystin-2 was necessary for calcium release elicited by triptolide addition, it was reconstituted by stable expression of Pkd2 into the background of Pkd2^−/− cells, which were assessed for sensitivity to triptolide.

[3] = molecular target: T1, polycystin-2 (Mus musculus, UniProt O35245); assay: as above; format: cell-based; conditions: Pkd1^−/− cells, 100 nM perfused
T1 construct: endogenous in cells; host or cells: Pkd1-/- (PN24) murine kidney proximal tubule epithelial cells
T1 sequence (O35245 1-966): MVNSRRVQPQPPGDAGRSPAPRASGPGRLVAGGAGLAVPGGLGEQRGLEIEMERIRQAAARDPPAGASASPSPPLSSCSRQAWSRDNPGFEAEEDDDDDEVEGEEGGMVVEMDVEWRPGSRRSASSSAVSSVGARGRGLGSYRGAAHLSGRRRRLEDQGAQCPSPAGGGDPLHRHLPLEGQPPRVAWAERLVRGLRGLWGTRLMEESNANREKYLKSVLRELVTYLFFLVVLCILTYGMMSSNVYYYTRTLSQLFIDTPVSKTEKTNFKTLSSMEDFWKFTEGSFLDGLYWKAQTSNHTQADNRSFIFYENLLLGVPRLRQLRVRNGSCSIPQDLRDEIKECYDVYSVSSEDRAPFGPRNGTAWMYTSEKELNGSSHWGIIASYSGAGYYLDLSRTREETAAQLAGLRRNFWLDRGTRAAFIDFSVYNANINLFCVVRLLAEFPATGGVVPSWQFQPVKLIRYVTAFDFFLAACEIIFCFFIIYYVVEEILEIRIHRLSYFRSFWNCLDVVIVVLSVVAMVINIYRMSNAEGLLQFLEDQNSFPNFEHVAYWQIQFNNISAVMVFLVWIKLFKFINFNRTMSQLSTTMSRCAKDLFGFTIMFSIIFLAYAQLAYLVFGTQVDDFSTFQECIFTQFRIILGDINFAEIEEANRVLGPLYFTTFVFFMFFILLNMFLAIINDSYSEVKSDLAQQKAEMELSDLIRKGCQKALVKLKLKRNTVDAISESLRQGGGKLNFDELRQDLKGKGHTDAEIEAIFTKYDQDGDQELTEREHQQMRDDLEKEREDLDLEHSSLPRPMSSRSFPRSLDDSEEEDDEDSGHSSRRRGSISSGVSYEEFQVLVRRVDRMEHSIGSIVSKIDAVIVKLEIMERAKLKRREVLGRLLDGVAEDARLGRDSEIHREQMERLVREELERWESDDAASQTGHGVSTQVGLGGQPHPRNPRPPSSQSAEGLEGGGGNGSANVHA
Method: as §1, §2

[4] = tested on: Pkd2^+/− cells; assay: Viability of Pkd2+/− kidney epithelial cells; format: cell-based, murine; conditions: Pkd2+/− cells (one copy each of Pkd1 and Pkd2), 100 nM
[5] = tested on: NFκB transactivation; assay: κB-luciferase reporter assay of TNF-α induced NFκB transactivation in HeLa cells; format: cell-based; conditions: for inhibition at 0.1 µM: Homo sapiens
Method: Having established that triptolide induced cell death is dependent upon free calcium concentration, Applicant next determined whether this was also a requirement for the inhibition of NFκB transcription. HeLa cells were transiently transfected with the κB-luciferase reporter construct for 8 hours before being washed and then cultured in the presence or absence of calcium containing medium for 16 hours. Triptolide (100 nM) was pre-incubated with cells for 1 hour before addition of 15 ng/ml of TNF-α for 4 hours.
As an additional experiment, transcriptional activity was also assessed by site-directed calcium buffering. HeLa cells were co-transfected with the κB-luciferase plasmid as well as one of the following constructs: GFP empty vector, NES-PV-GFP, or NLS-PV-GFP and proper GFP localization was confirmed. […]
NFκB transactivation was examined using the κB-luciferase reporter construct. […] Cells were assessed for NFκB driven luciferase expression after an additional five hours of incubation, at which time TNF-α had induced transcriptional activity by approximately 15-fold in control cells. […] The results thus far support a divergence of triptolide-mediated functions: the pathway regulating growth arrest/death is more sensitive to triptolide and calcium than the mechanism leading to transcriptional repression of NFκB.
A triple κB promoter-Luciferase reporter construct was a gift of Sankar Ghosh (Yale University). […] The transfection efficiency of HeLa was determined to be 80-90%, and all samples were normalized to protein concentration. Luciferase assays were performed using the Firefly luciferase kit as per manufacturer's protocol (Promega) and results obtained on the Wallac Victor2 1420 Multilabel Counter (Perkin Elmer).

SMILES: CC(C)[C@]12O[C@H]1[C@@H]1O[C@]13[C@]1(O[C@H]1C[C@H]1C4=C(CC[C@@]13C)C(=O)OC4)[C@@H]2O [triptolide]
- adverse effects ([1]; 0.07 mg/kg/day i.p.): no discernable adverse effects
- MTD ([1]; female, mouse, in vivo, ip, read-out: maximum tolerated dose): 0.07 mg/kg/day
- dose at which toxicity (resorption of all embryos or large percentage of stillborns) was most prominent ([1]; i.p., 0.01-0.15 mg/kg/day tested): ≥ 0.1 mg/kg/day
- calcium release (Fluo-4 fluorescence) ([2]; Pkd2^−/− cells, 100 nM perfused): no calcium release was detected
- calcium release (Fluo-4 fluorescence) ([2]; Pkd2 re-expressed (Rex) in Pkd2^−/− background, 100 nM): restored calcium release
- calcium release (Fluo-4 fluorescence) [3]: clear rise in intracellular calcium levels
- cell viability [4]: rapid cell death within 24 hours
- inhibition of TNF-α driven transcriptional activity of NFκB ([5]; 10 nM, 1 h pre-treatment + 5 h TNF-α): did not inhibit
- luciferase induction remaining with compound + TNF-α ([5]; 10 nM, after 24 hours): > 20 fold
- inhibition of TNF-α driven transcriptional activity of NFκB ([5]; 25 nM, 1 h pre-treatment + 5 h TNF-α): did not inhibit
- suppression of TNF-α driven NFκB activity ([5]; 50 nM, 1 h pre-treatment + 5 h TNF-α): 20%
- suppression of NFκB transactivation with site-directed calcium buffering ([5]; 100 nM, GFP vector, NES-PV-GFP or NLS-PV-GFP): retained the ability to suppress NFκB transactivation
- inhibition of TNF-α induced NFκB transactivation ([5]; 100 nM, presence and absence of calcium): effectively inhibited
- NFκB activity at higher concentration ([5]; 1 or 10 μM, 5 hours with TNF-α): attenuated further
- inhibition at 0.1 µM ([5]; 0.1 μM, 5 hours with TNF-α, read-out: NFκB inhibition): > 60%
- inhibition at 0.1 µM ([5]; 100 nM, 1 h pre-treatment + 5 h TNF-α, read-out: inhibition of TNF-α driven NFκB activity (average)): 60%
